This test has as its system bicistronic HCV replicon (replicon RNA, GenBank Accession No. AJ242654). Briefly: HCV Replicon Assay. In kind it is cell-based. The note with it: Hepatitis C virus, 72 h, read-out: Replicon IC50. For orientation: A replicon is a self-replicating genome or part of one, used to study replication in cells.
As for `Cc1cc2c(cc1F)c(C#N)c(-c1ccc(S(=O)(=O)NC(C)(C)C)cn1)n2-c1ncccn1` [compound 824, N-tert-butyl-6-[3-cyano-5-fluoro-6-methyl-1-(pyrimidin-2-yl)-1H-indol-2-yl]pyridine-3-sulfonamide], the half-maximal inhibitory concentration (IC50) (in general, the concentration that gives 50% inhibition) is < 500 nM. Regarding `CCc1cc2c(cc1F)c(C(N)=O)c(-c1ccc(S(=O)(=O)N[C@@H](C)C(F)(F)F)cn1)n2-c1ccccn1` [compound 909, 6-ethyl-5-fluoro-1-(pyridin-2-yl)-2-(5-{[(2S)-1,1,1-trifluoropropan-2-yl]sulfamoyl}pyridin-2-yl)-1H-indole-3-carboxamide], the IC50 is 500 to 2000 nM. The value for `C[C@H](NS(=O)(=O)c1ccc(-c2c(C#N)c3cc(F)c(OC(F)F)cc3n2-c2ncccn2)nc1)C(F)(F)F` [compound 682, 6-[3-cyano-6-(difluoromethoxy)-5-fluoro-1-(pyrimidin-2-yl)-1H-indol-2-yl]-N-[(2S)-1,1,1-trifluoropropan-2-yl]pyridine-3-sulfonamide] was < 500 nM; that for `C[C@@H](NS(=O)(=O)c1ccc(-c2c(C#N)c3cc(Cl)ccc3n2C2CCC2)nc1)C(F)(F)F` [compound 316, 6-(5-chloro-3-cyano-1-cyclobutyl-1H-indol-2-yl)-N-[(2R)-1,1,1-trifluoropropan-2-yl]pyridine-3-sulfonamide] was < 500 nM; that for `CC(C)NS(=O)(=O)c1ccc(-c2c(C#N)c3ccc(C4CC4)cc3n2C2CC2)nc1` [compound 109, 6-(3-cyano-1,6-dicyclopropyl-1H-indol-2-yl)-N-(propan-2-yl)pyridine-3-sulfonamide] was < 500 nM. As to `C[C@H](NS(=O)(=O)c1ccc(-c2c(C#N)c3cc(F)c(CCO)cc3n2-c2ncccn2)nc1)C(F)(F)F` [compound 970, 6-[3-cyano-5-fluoro-6-(2-hydroxyethyl)-1-(pyrimidin-2-yl)-1H-indol-2-yl]-N-[(2S)-1,1,1-trifluoropropan-2-yl]pyridine-3-sulfonamide], the half-maximal inhibitory concentration (IC50) is < 500 nM.

As for `N#Cc1c(-c2ccc(S(N)(=O)=O)cn2)n(C2CCC2)c2cc(C3CC3)ccc12` [compound 90, 6-(3-cyano-1-cyclobutyl-6-cyclopropyl-1H-indol-2-yl)pyridine-3-sulfonamide], the IC50 was 2000 to 5000 nM. Next, `N#Cc1c(-c2ccc(S(=O)(=O)NC(CF)CF)cn2)n(CC2CC2)c2ccc(Cl)cc12` [compound 73, 6-[5-chloro-3-cyano-1-(cyclopropylmethyl)-1H-indol-2-yl]-N-(1,3-difluoropropan-2-yl)pyridine-3-sulfonamide]: < 500 nM; `N#Cc1c(-c2ccc(S(=O)(=O)NC3(C(F)(F)F)CC3)cn2)n(C2CCC2)c2cc(O)c(F)cc12` [compound 813, 6-(3-cyano-1-cyclobutyl-5-fluoro-6-hydroxy-1H-indol-2-yl)-N-[1-(trifluoromethyl)cyclopropyl]pyridine-3-sulfonamide]: 500 to 2000 nM. As for `Cc1cc2c(cc1F)c(C#N)c(-c1ccc(S(=O)(=O)NC3(C(F)(F)F)CC3)cn1)n2C1CCCC1` [compound 644, 6-(3-cyano-1-cyclopentyl-5-fluoro-6-methyl-1H-indol-2-yl)-N-[1-(trifluoromethyl)cyclopropyl]pyridine-3-sulfonamide], the IC50 was < 500 nM. Next, `C[C@H](NS(=O)(=O)c1cnc(-c2c(C#N)c3ccc(Cl)cc3n2CC2CC2)nc1)C(F)(F)F` [compound 415, 2-[6-chloro-3-cyano-1-(cyclopropylmethyl)-1H-indol-2-yl]-N-[(2S)-1,1,1-trifluoropropan-2-yl]pyrimidine-5-sulfonamide]: < 500 nM.

As for `C[C@H](NS(=O)(=O)c1ccc(-c2c(C#N)c3ccc(Cl)cc3n2C2CCCC2)nc1)C1CC1` [compound 155, 6-(6-chloro-3-cyano-1-cyclopentyl-1H-indol-2-yl)-N-[(1S)-1-cyclopropylethyl]pyridine-3-sulfonamide], the IC50 was < 500 nM. The value for `CC(C)(C)NS(=O)(=O)c1ccc(-c2c(C#N)c3cc(F)ccc3n2-c2ncccn2)nc1` [compound 823, N-tert-butyl-6-[3-cyano-5-fluoro-1-(pyrimidin-2-yl)-1H-indol-2-yl]pyridine-3-sulfonamide] was 500 to 2000 nM; that for `CC(C)n1c(-c2ncc(S(=O)(=O)N[C@@H](C)C(F)(F)F)cn2)c(C#N)c2cc(Cl)ccc21` [compound 420, 2-[5-chloro-3-cyano-1-(propan-2-yl)-1H-indol-2-yl]-N-[(2S)-1,1,1-trifluoropropan-2-yl]pyrimidine-5-sulfonamide] was 500 to 2000 nM.

As to `CC(C)n1c(-c2ncc(S(=O)(=O)NC(CF)CF)cn2)c(C#N)c2cc(Cl)ccc21` [compound 187, 2-[5-chloro-3-cyano-1-(propan-2-yl)-1H-indol-2-yl]-N-(1,3-difluoropropan-2-yl)pyrimidine-5-sulfonamide], the IC50 is < 500 nM.

Turning to `N#Cc1c(-c2ccc(S(=O)(=O)NC(CF)CF)cn2)n(C2CCCCC2)c2ccc(Cl)cc12` [compound 79, 6-(5-chloro-3-cyano-1-cyclohexyl-1H-indol-2-yl)-N-(1,3-difluoropropan-2-yl)pyridine-3-sulfonamide], the IC50 is < 500 nM.

Take `Cc1cc2c(cc1F)c(C#N)c(-c1ccc(S(=O)(=O)N[C@H](C)C(F)(F)F)cn1)n2C1CCCC1` [compound 409, 6-(3-cyano-1-cyclopentyl-5-fluoro-6-methyl-1H-indol-2-yl)-N-[(2R)-1,1,1-trifluoropropan-2-yl]pyridine-3-sulfonamide]: the concentration for half-maximal inhibition (IC50) was < 500 nM. Next, `N#Cc1c(-c2ccc(S(=O)(=O)NC(CF)CF)cn2)n(C2CCC2)c2cc(CF)ccc12` [compound 318, 6-[3-cyano-1-cyclobutyl-6-(fluoromethyl)-1H-indol-2-yl]-N-(1,3-difluoropropan-2-yl)pyridine-3-sulfonamide]: < 500 nM.

As to `N#Cc1c(-c2ncc(S(=O)(=O)NC(CF)CF)cn2)n(C2CCC2)c2ccc(C(F)F)cc12` [compound 379, 2-[3-cyano-1-cyclobutyl-5-(difluoromethyl)-1H-indol-2-yl]-N-(1,3-difluoropropan-2-yl)pyrimidine-5-sulfonamide], the IC50 is < 500 nM. For `Cc1cc2c(cc1F)cc(-c1ccc(S(=O)(=O)N[C@@H](C)C(F)(F)F)cn1)n2-c1cncs1` [compound 959, 6-[5-fluoro-6-methyl-1-(1,3-thiazol-5-yl)-1H-indol-2-yl]-N-[(2S)-1,1,1-trifluoropropan-2-yl]pyridine-3-sulfonamide], the IC50 is < 500 nM.

Turning to `C[C@H](NS(=O)(=O)c1ccc(-c2c(C#N)c3cc(Cl)c(OC(F)F)cc3n2C2CCC2)nc1)C(F)(F)F` [compound 636, 6-[5-chloro-3-cyano-1-cyclobutyl-6-(difluoromethoxy)-1H-indol-2-yl]-N-[(2S)-1,1,1-trifluoropropan-2-yl]pyridine-3-sulfonamide], the IC50 was < 500 nM. On to `C[C@H](NS(=O)(=O)c1ccc(-c2c(C#N)c3ccc(CC(F)F)cc3n2CC2CC2)nc1)C1CC1` [compound 617, 6-[3-cyano-1-(cyclopropylmethyl)-6-(2,2-difluoroethyl)-1H-indol-2-yl]-N-[(1S)-1-cyclopropylethyl]pyridine-3-sulfonamide], for which the concentration for half-maximal inhibition (IC50) was < 500 nM. Next, `Cc1cc2c(cc1F)cc(-c1ccc(S(=O)(=O)N[C@@H](C)C(F)(F)F)cn1)n2C1CCCC1` [compound 760, 6-(1-cyclopentyl-5-fluoro-6-methyl-1H-indol-2-yl)-N-[(2S)-1,1,1-trifluoropropan-2-yl]pyridine-3-sulfonamide]: < 500 nM; `C[C@H](NS(=O)(=O)c1ccc(-c2c(C#N)c3ccc(OC(F)(F)F)cc3n2C2CCC2)nc1)C1CC1` [compound 152, 6-[3-cyano-1-cyclobutyl-6-(trifluoromethoxy)-1H-indol-2-yl]-N-[(1S)-1-cyclopropylethyl]pyridine-3-sulfonamide]: < 500 nM; `Cc1cc2c(cc1F)c(C#N)c(-c1ccc(S(=O)(=O)N[C@@H](C)C(F)(F)F)cn1)n2-c1ncccn1` [compound 634, 6-[3-cyano-5-fluoro-6-methyl-1-(pyrimidin-2-yl)-1H-indol-2-yl]-N-[(2S)-1,1,1-trifluoropropan-2-yl]pyridine-3-sulfonamide]: < 500 nM.

Turning to `COC(=O)c1c(-c2ccc(S(=O)(=O)NC(C)(C)C)cn2)n(C2CCC2)c2cc(C)c(F)cc12` [compound 770, methyl 2-[5-(tert-butylsulfamoyl)pyridin-2-yl]-1-cyclobutyl-5-fluoro-6-methyl-1H-indole-3-carboxylate], the 50% inhibitory concentration (IC50) was < 500 nM. Next, `Cc1cc2c(cc1F)c(C#N)c(-c1cc(C)c(S(=O)(=O)N[C@@H](C)C(F)(F)F)cn1)n2-c1ncccn1` [compound 853, 6-[3-cyano-5-fluoro-6-methyl-1-(pyrimidin-2-yl)-1H-indol-2-yl]-4-methyl-N-[(2S)-1,1,1-trifluoropropan-2-yl]pyridine-3-sulfonamide]: < 500 nM. Take `Cc1cc2c(cc1F)c(C(=O)O)c(-c1ccc(S(=O)(=O)N[C@@H](C)C(F)(F)F)cn1)n2C1CCCC1` [compound 758, (S)-1-cyclopentyl-5-fluoro-6-methyl-2-(5-(N-(1,1,1-trifluoropropan-2-yl)sulfamoyl)pyridin-2-yl)-1H-indole-3-carboxylic acid]: the half-inhibitory concentration (IC50) was < 500 nM.

Turning to `CC(O)c1cc2c(cc1F)c(C#N)c(-c1ccc(S(=O)(=O)N[C@@H](C)C(F)(F)F)cn1)n2-c1ncccn1` (stereo partly drawn) [compound 911, 6-[3-cyano-5-fluoro-6-(1-hydroxyethyl)-1-(pyrimidin-2-yl)-1H-indol-2-yl]-N-[(2S)-1,1,1-trifluoropropan-2-yl]pyridine-3-sulfonamide], the IC50 is < 500 nM. The value for `CC(C)NS(=O)(=O)c1cnc(-c2c(C#N)c3ccc(Cl)cc3n2C(C)C)nc1` [compound 156, 2-[6-chloro-3-cyano-1-(propan-2-yl)-1H-indol-2-yl]-N-(propan-2-yl)pyrimidine-5-sulfonamide] was 500 to 2000 nM; that for `N#Cc1c(-c2ncc(S(=O)(=O)NC(CF)CF)cn2)n(C2CCC2)c2cc(C3CC3)c(F)cc12` [compound 145, 2-(3-cyano-1-cyclobutyl-6-cyclopropyl-5-fluoro-1H-indol-2-yl)-N-(1,3-difluoropropan-2-yl)pyrimidine-5-sulfonamide] was < 500 nM.

The record behind these values is patent US8735414B2 (priority 2009, dated 2014).
